Several values for one entry are separate records, joined by “and”; a condition that tells them apart may be missing. Equal values may be shown once.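 Five compound concentrations were applied to cells in 96-well plates for 48 hours; endpoints were derived by simple linear interpolation of the resulting dose-response curve. Here, GI50 denotes the concentration required for 50% inhibition of growth. TGI is the concentration that stops growth completely.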
Assays:
Test in all cases: DTP human tumour cell line panel, 48 h
NCI-H522 lung = test system: NCI-H522 lung
MDA-MB-231 breast = test system: MDA-MB-231 breast
RPMI-8226 leukemia = test system: RPMI-8226 leukemia
HT29 colon = test system: HT29 colon
CAKI-1 renal = test system: CAKI-1 renal
IGROV1 ovarian = test system: IGROV1 ovarian
SF-268 CNS = test system: SF-268 CNS
OVCAR-3 ovarian = test system: OVCAR-3 ovarian
HL-60(TB) leukemia = test system: HL-60(TB) leukemia
UACC-62 melanoma = test system: UACC-62 melanoma

SMILES	TGI (NCI-H522 lung)	TGI (MDA-MB-231 breast)	TGI (RPMI-8226 leukemia)	TGI (HT29 colon)	TGI (CAKI-1 renal)	TGI (IGROV1 ovarian)	TGI (SF-268 CNS)	TGI (OVCAR-3 ovarian)	TGI (HL-60(TB) leukemia)	TGI (UACC-62 melanoma)	GI50 (NCI-H522 lung)	GI50 (MDA-MB-231 breast)	GI50 (RPMI-8226 leukemia)	GI50 (HT29 colon)	GI50 (CAKI-1 renal)	GI50 (IGROV1 ovarian)	GI50 (SF-268 CNS)	GI50 (OVCAR-3 ovarian)	GI50 (HL-60(TB) leukemia)	GI50 (UACC-62 melanoma)
Cc1ccc2nc3c(C)c(Cl)c(=O)cc-3sc2c1	> 56.1 µM	15.8 µM	> 52.3 µM	> 100 µM	> 100 µM	> 100 µM	> 100 µM	> 100 µM	26.7 µM	17.4 µM	–	–	–	–	–	–	–	–	–	–
COc1ccccc1/C=C\c1cnnc2ccccc12	> 10 µM	> 10 µM	> 10 µM	> 10 µM	> 10 µM	> 10 µM	> 10 µM	> 10 µM	> 10 µM	> 10 µM	–	–	–	–	–	–	–	–	–	–
O=C1NC(=O)/C(=C/C=C/c2ccccc2)S1	52.7 µM	> 100 µM	> 96.5 µM	> 100 µM	8.86 µM	57.5 µM	> 70.2 µM	33.1 µM	9.58 µM	27 µM	7.82 µM	30.4 µM	3.67 µM	12.1 µM	0.46 µM	12.2 µM	2.96 µM	2.88 µM	1.27 µM	0.49 µM
Oc1ccc2oc3ncc(Cl)c(-c4ccccc4)c3c2c1	> 100 µM	> 100 µM	> 100 µM	> 100 µM	> 100 µM	> 100 µM	> 100 µM	> 100 µM	> 100 µM	> 100 µM	> 100 µM	> 100 µM	> 100 µM	> 100 µM	> 100 µM	> 100 µM	> 100 µM	> 100 µM	> 100 µM	> 100 µM
O=C(O)c1c(O)c2cc(Br)ccc2oc1=O	> 100 µM	> 100 µM	> 100 µM	> 100 µM	> 100 µM	> 100 µM	> 100 µM	> 100 µM	> 100 µM	> 100 µM	–	–	–	–	–	–	–	–	–	–
S=c1nc(-c2ccccc2)oc(=NC2CCCCC2)n1C1CCCCC1	18.3 µM	15.9 µM	6.51 µM	14.8 µM	6.38 µM	8.13 µM	17.6 µM	11.3 µM	5.29 µM	21 µM	4.8 µM	3.69 µM	2.69 µM	4.1 µM	1.99 µM	3 µM	4.72 µM	3.54 µM	1.9 µM	5.92 µM
COc1cc(C)c(C(=O)O[C@H]2[C@H](O[C@H]3[C@@H](O)COC(O[C@H]4C[C@H]5[C@@H]6CC=C7C[C@@H](O)CC[C@]7(C)[C@H]6CC[C@]5(C)[C@H]4[C@H](C)C(=O)CCC(C)C)[C@@H]3OC(C)=O)OC[C@@H](O)[C@@H]2O)c(C)c1 (stereo not given in full)	0.334 µM	16.1 µM	< 0.01 µM	15.7 µM	1.18 µM	19.9 µM	2.92 µM	22 µM	20 µM	< 0.01 µM	< 0.01 µM	0.517 µM	< 0.01 µM	0.157 µM	< 0.01 µM	0.247 µM	< 0.01 µM	2.77 µM	0.016 µM	< 0.01 µM
O=C(c1ccccc1Nc1ccnc(C(F)(F)F)c1)N1CCN(c2cccc(Cl)c2)CC1	63.5 µM	56 µM	48 µM	53.3 µM	75 µM	24 µM	> 100 µM	> 80.9 µM	59 µM	25.7 µM	15.4 µM	16.1 µM	6.3 µM	19.2 µM	21 µM	5.53 µM	29.3 µM	19 µM	16.2 µM	10.6 µM
C#CCN1C(=O)/C(=c2\sc3n(c2=O)C2C(NN=3)N(CC)C(=O)N2CC)c2ccccc21 (stereo not given)	> 76 µM	40 µM	–	> 100 µM	> 54.2 µM	> 91.1 µM	> 100 µM	1.69 µM	0.775 µM	> 74.1 µM	0.447 µM	2.07 µM	0.375 µM	0.387 µM	0.459 µM	0.589 µM	5.5 µM	0.316 µM	0.271 µM	0.453 µM
C=C1CCC2C3(C)COC(c4ccc(NC(C)=O)cc4)OC3CCC2(C)C1C/C=C1/C(=O)OCC1O (stereo not given)	> 100 µM	> 100 µM	8.32 µM	> 100 µM	> 100 µM	> 100 µM	> 100 µM	> 100 µM	> 100 µM	> 100 µM	4.53 µM	> 100 µM	0.985 µM	5.35 µM	4.71 µM	> 100 µM	> 100 µM	> 100 µM	2.93 µM	> 100 µM
O=C1c2ccccc2C(=O)c2c(NCCCNCCO)ccc(NCCCNCCO)c21	15.5 µM	24.2 µM	53.1 µM	15.9 µM	98.2 µM	> 49 µM	17.9 µM	27.3 µM	33.8 µM	24.6 µM	–	–	–	–	–	–	–	–	–	–
CN1/C(=C\C(I)C(I)C2=[N+](C)c3ccccc3C2(C)C)C(C)(C)c2ccccc21 (stereo not given)	10.2 µM	20.9 µM	2.67 µM	11.4 µM	> 38.6 µM	42.5 µM	19.1 µM	13.8 µM	0.651 µM	14.2 µM	0.257 µM	0.773 µM	0.057 µM	0.242 µM	0.974 µM	0.464 µM	0.479 µM	0.304 µM	0.178 µM	0.303 µM
C/C(=C\c1ccc(Cl)cc1)C(C)(C)C(=O)O	> 100 µM	> 100 µM	> 100 µM	> 100 µM	> 100 µM	> 100 µM	> 100 µM	> 100 µM	> 100 µM	> 100 µM	–	–	–	–	–	–	–	–	–	–
CN(C)c1ccc(/C=C2\C[C@H]3[C@@H]4CC=C5C[C@@H](N6CCCC6)CC[C@]5(C)[C@H]4CC[C@]3(C)[C@H]2O)cc1	2.25 µM	2.16 µM and 4.46 µM	–	3.54 µM and 15.1 µM	3.88 µM and 23.9 µM	2 µM and 8.53 µM	2.4 µM and 9.84 µM	2.7 µM and 4.86 µM	2.31 µM and 4.86 µM	1.6 µM and 4.05 µM	–	2.23 µM	3.1 µM	3.17 µM	1.99 µM	3.92 µM	2.93 µM	2.06 µM	2.3 µM	2 µM
COc1ccc(-c2ccc3c(NC(=O)C4CC4)n[nH]c3n2)cc1	> 25 µM	> 25 µM	> 25 µM	> 25 µM	> 25 µM	> 25 µM	> 25 µM	> 25 µM	> 25 µM	> 25 µM	> 22.9 µM	> 25 µM	> 25 µM	> 25 µM	> 25 µM	> 25 µM	11.5 µM	> 25 µM	> 25 µM	> 25 µM
O=C(NCc1cccnc1)/C(=C\c1ccc(Br)cc1)S(=O)(=O)c1ccccc1	1.58 µM	2.1 µM	2.43 µM	3.92 µM	2.22 µM	2.11 µM	2.82 µM	1.7 µM	2.05 µM	2.53 µM	0.38 µM	0.705 µM	0.408 µM	0.514 µM	1.02 µM	0.636 µM	1 µM	0.419 µM	0.345 µM	1.14 µM
CC1(C)N=C(N)N=C(N)N1c1cccc(C#N)c1	> 100 µM	> 100 µM	> 100 µM	> 100 µM	> 100 µM	> 100 µM	> 100 µM	> 100 µM	> 100 µM	> 100 µM	4.68 µM	> 100 µM	62.9 µM	0.933 µM	2.45 µM	6.7 µM	0.692 µM	19 µM	3.46 µM	3.84 µM
CCCS(=O)(=O)Nc1ccc(F)c(C(=O)c2c[nH]c3ncc(-c4ccc(Cl)cc4)cc23)c1F	22.3 µM and > 10 µM	18.9 µM and > 10 µM	37.4 µM and > 10 µM	9.55 µM and > 10 µM	16.5 µM and > 10 µM	14.4 µM and > 10 µM	23.6 µM and > 10 µM	25.5 µM and > 10 µM	12.2 µM and > 10 µM	0.496 µM and 0.485 µM	7.14 µM and > 7.96 µM	3.98 µM and 5.16 µM	3.9 µM and 6.36 µM	0.0887 µM and 0.0812 µM	2.63 µM and 2.81 µM	3.52 µM and 3.63 µM	6.09 µM and 6.67 µM	7.65 µM and > 8.66 µM	3.64 µM and > 10 µM	0.0241 µM and 0.034 µM
C/C1=C\[C@H](C)C[C@H](C)OC(=O)C[C@H](c2ccc(O)cc2)NC(=O)[C@@H](Cc2c(Br)[nH]c3ccccc23)N(C)C(=O)[C@H](C)NC(=O)[C@@H](C)C1	0.908 µM and 1.13 µM	0.0741 µM	–	0.897 µM and 8.94 µM	0.2 µM and 0.0985 µM	0.265 µM and 0.0602 µM	0.443 µM and 0.166 µM	0.323 µM and 0.255 µM	0.384 µM and 0.175 µM	0.9 µM and 1.44 µM	0.0344 µM	–	< 0.0176 µM	0.0216 µM	0.0272 µM	0.023 µM	0.0352 µM	0.0393 µM	0.0176 µM	0.0414 µM
